{
  "source": "patent US20240208954A1",
  "about": "“OXADIAZOLE COMPOUND, PREPARATION METHOD THEREFOR, PHARMACEUTICAL COMPOSITION AND USE THEREOF” (SHANGHAI INSTITUTE OF MATERIA MEDICA, CHINESE ACADEMY OF …, priority 2020, published 2024)",
  "format_in_all_cases": "cell-based",
  "key": {"[1]": {"biological_target": "S1PR3 (Homo sapiens, UniProt Q99500)", "sequence (Q99500 whole entry, species assumed)": "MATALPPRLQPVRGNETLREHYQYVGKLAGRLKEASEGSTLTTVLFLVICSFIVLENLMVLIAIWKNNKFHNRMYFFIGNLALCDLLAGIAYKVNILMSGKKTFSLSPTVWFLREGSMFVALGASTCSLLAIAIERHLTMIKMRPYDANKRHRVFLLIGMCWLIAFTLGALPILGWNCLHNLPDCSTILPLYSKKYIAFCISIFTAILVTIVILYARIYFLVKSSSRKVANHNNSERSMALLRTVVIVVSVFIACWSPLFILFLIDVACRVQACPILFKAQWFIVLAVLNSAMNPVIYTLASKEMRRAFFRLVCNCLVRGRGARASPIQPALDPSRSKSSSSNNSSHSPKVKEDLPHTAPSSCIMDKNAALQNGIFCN", "assay": "Agonistic activity test on S1P receptors, FLIPR", "description": "(§1) Instrument: FLIPR™ TETRA (Molecular Device)\n(§2) Sample processing: Before the experiment, the working solution with the corresponding concentration was prepared by diluting with GPCR dilution buffer.\n(§3) After 18-20 hours, the cell culture plat was taken out and added with dye working solution, and then the plate was placed in a 37° C./5% CO2 incubator for 1 hour, and finally equilibrated at room temperature for 15 minutes. Positive agonist working solution was added, and RFU values were detected and recorded. […] The positive agonist working fluid was added to the cell culture plate at the 21st second. […] The antagonistic mode detection program, the overall detection time of the instrument was 120 seconds, and positive antagonist working solution was added to the cell culture plate at the 21st second.\n(§4) Data processing: Raw data were obtained via ScreenWorks (version 3.1) and saved as *FMD files on the Kingsray computer network system. Data were collected and analyzed using Excel and GraphPad Prism 6 software programs. For each well, the average fluorescence intensity value from 1 to 20 seconds was used as the baseline, and the maximum fluorescence intensity value from 21 to 120 seconds minus the minimum fluorescence intensity value from 21 to 120 seconds was the relative fluorescence intensity value (ARFU), from which the percentage activation or inhibition can be calculated based on the following equation.\n(§5) % Activation Rate=(ΔRFUCompound-ΔRFUBackground)/(ΔRFUAgonist control-ΔRFUBackground)×100%\n(§6) The data was analyzed using GraphPad Prism 6 with a four-parameter equation to calculate the EC50 and IC50 values. The four-parameter equation was as follows: y=Bottom+(Top-Bottom)/(1+10^((LogEC50/IC50-X)*HillSlope)), wherein X is the Log value of the concentration and Y was the inhibition rate."}, "[2]": {"biological_target": "T1, S1PR1 (Homo sapiens, UniProt P21453)", "T1 construct": "host or cells: CHO-K1 co-expressing Ga15", "T1 sequence (P21453 whole entry)": "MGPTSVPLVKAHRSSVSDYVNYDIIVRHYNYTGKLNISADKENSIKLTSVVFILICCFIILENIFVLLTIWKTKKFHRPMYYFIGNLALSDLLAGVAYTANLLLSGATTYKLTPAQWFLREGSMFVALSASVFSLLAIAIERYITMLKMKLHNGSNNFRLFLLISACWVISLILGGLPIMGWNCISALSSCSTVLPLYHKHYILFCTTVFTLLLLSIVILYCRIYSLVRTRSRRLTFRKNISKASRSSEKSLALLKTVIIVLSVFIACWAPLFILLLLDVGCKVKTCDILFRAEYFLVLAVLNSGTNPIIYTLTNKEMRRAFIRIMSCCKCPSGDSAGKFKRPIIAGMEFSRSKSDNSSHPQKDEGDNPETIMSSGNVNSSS", "assay": "Agonistic activity test on S1P receptors, FLIPR, CHO-K1/Ga15/EDG1 cells", "description": "as §1\nExperimental materials: CHO-K1/Ga15/EDG1 cells constructed by GenScript autonomously.\nas §2, §3, §4, §5, §6"}, "[3]": {"biological_target": "S1P2 (Homo sapiens, UniProt O95136)", "sequence (O95136 whole entry, species assumed)": "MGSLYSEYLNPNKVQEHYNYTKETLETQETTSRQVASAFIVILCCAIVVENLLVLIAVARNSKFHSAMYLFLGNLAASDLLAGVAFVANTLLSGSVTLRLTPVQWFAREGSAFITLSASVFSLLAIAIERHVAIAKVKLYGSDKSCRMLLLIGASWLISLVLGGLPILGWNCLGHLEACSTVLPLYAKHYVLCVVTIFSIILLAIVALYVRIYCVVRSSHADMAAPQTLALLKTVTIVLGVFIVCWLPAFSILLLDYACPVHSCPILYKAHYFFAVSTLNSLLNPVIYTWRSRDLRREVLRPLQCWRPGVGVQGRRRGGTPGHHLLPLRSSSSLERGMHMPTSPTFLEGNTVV", "assay": "Subtype selectivity study, method of Experimental Example 1", "description": "(§7) Experimental method: CHO-K1/Ga15/EDG1 cells stably expressing EDG1 receptor were cultured in a 10 cm culture dish in a 37° C./5% CO2incubator, and digested when the confluence rate reached 80%-85%. The cells in collected cell suspension were inoculated into 384 microtiter plates at appropriate density, and then placed in a 37° C./5% CO2 incubator and continue to incubate for at least 18 hours before using for experiments. After 18-20 hours, the cell culture plat was taken out and added with dye working solution, and then the plate was placed in a 37° C./5% CO2 incubator for 1 hour, and finally equilibrated at room temperature for 15 minutes. Positive agonist working solution was added, and RFU values were detected and recorded. The 384 microplates, cell plates and tip box with positive agonist working solution were placed into FLIPRTM TETRA and the agonist mode assay program was run with an overall assay time of 120 seconds. The positive agonist working fluid was added to the cell culture plate at the 21st second. 384 microplate, cell plate and gun head box containing the positive antagonist working fluid were put into the FLIPRTM TETRA. The antagonistic mode detection program, the overall detection time of the instrument was 120 seconds, and positive antagonist working solution was added to the cell culture plate at the 21st second. Data processing: Raw data were obtained via ScreenWorks (version 3.1) and saved as *FMD files on the […] computer network system. Data were collected and analyzed using Excel and GraphPad Prism 6 software programs. […] The four-parameter equation was as follows: y=Bottom+(Top-Bottom)/(1+10^((LogEC50/IC50-X)*HillSlope)), wherein X is the Log value of the concentration and Y was the inhibition rate. The S1P receptor selectivity was tested for different subtypes using the method described in Experimental Example 1."}, "[4]": {"biological_target": "T2, S1P4 (Homo sapiens, UniProt O95977)", "T2 sequence (O95977 1-384)": "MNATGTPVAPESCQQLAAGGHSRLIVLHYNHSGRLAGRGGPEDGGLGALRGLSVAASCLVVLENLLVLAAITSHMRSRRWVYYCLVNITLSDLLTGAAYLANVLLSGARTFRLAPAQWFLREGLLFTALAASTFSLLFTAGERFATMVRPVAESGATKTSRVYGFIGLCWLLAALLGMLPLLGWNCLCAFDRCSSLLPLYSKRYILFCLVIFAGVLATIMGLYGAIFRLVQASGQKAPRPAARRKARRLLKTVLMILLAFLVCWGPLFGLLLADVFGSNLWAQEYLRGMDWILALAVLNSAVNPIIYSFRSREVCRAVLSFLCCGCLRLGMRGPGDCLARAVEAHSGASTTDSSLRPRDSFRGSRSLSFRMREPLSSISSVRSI", "assay": "Subtype selectivity study, method of Experimental Example 1", "description": "as §7"}, "[5]": {"biological_target": "S1P5 (Homo sapiens, UniProt Q9H228)", "sequence (Q9H228 whole entry, species assumed)": "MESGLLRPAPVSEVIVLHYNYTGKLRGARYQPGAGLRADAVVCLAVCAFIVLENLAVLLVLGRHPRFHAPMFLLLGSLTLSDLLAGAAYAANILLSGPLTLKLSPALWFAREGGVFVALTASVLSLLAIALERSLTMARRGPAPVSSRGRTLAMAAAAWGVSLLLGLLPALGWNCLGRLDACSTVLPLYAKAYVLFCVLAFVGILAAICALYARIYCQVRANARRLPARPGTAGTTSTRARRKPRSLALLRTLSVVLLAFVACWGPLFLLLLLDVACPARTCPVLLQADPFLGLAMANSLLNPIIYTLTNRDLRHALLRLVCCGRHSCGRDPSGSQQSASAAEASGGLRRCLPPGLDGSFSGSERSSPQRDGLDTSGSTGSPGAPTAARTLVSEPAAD", "assay": "Subtype selectivity study, method of Experimental Example 1", "description": "as §7"}, "[6]": {"settings": "FLIPR agonist mode, read-out: S1PR3 EC50"}, "[7]": {"settings": "subtype selectivity study, read-out: S1P3 EC50"}, "[8]": {"settings": "CHO-K1/Ga15/EDG1 cells, FLIPR agonist mode, read-out: S1PR1 EC50"}},
  "note": "Read-outs that look alike come from different tables or passages of the source.",
  "data": [
    {"smiles": "CCc1cc(/C(C)=N/OCc2ccc(C3CCCCC3)c(C(F)(F)F)c2)ccc1CN1CC(C(=O)O)C1", "note": "[Siponmod, reference compound]", "values": [
      {"measurement": "EC50", "setting": "[1]; [6]", "value": "> 10", "unit": "µM"},
      {"measurement": "EC50", "setting": "[1]; [7]", "value": "> 1", "unit": "µM"},
      {"measurement": "EC50", "setting": "[2]; [8]", "value": 547, "unit": "nM"},
      {"measurement": "EC50", "setting": "[2]; subtype selectivity study, read-out: S1P1 EC50", "value": 547, "unit": "nM"},
      {"measurement": "EC50", "setting": "[3]", "value": "> 10", "unit": "µM"},
      {"measurement": "EC50", "setting": "[4]", "value": 750, "unit": "nM"},
      {"measurement": "EC50", "setting": "[5]", "value": 0.98, "unit": "nM"}
    ]},
    {"smiles": "O=C(O)C1CN(Cc2ccc(-c3noc(/C=C/c4ccccc4)n3)c3ccccc23)C1", "note": "[Compound A38, (E)-1-((4-(5-styryl-1,2,4-oxadiazol-3-yl)naphthalen-1-yl)methyl) azetidine-3-carboxylic acid hydrochloric acid]", "values": [
      {"measurement": "EC50", "setting": "[1]; [6]", "value": "> 10", "unit": "µM"},
      {"measurement": "EC50", "setting": "[2]; [8]", "value": 1420, "unit": "nM"}
    ]},
    {"smiles": "O=C(O)C1CN(Cc2ccc(-c3noc(-c4ccc5c(c4)OCO5)n3)c3ccccc23)C1", "note": "[Compound A31]", "values": [
      {"measurement": "EC50", "setting": "[1]; [6]", "value": "> 10", "unit": "µM"},
      {"measurement": "EC50", "setting": "[2]; [8]", "value": 1300, "unit": "nM"}
    ]},
    {"smiles": "CC(C)Oc1ccc(-c2nc(-c3cccc4c3CC[C@@H]4NCCO)no2)cc1C#N", "note": "[Ozanimod]", "values": [
      {"measurement": "EC50", "setting": "[1]; [6]", "value": "> 10", "unit": "µM"},
      {"measurement": "EC50", "setting": "[1]; [7]", "value": 2.62, "unit": "µM"},
      {"measurement": "EC50", "setting": "[3]", "value": "> 10", "unit": "µM"},
      {"measurement": "EC50", "setting": "[4]", "value": "> 10000", "unit": "nM"},
      {"measurement": "EC50", "setting": "[5]", "value": 10.7, "unit": "nM"}
    ]},
    {"smiles": "CC(C)(C)Oc1ccc(-c2nc(-c3ccc(CN4CC(C(=O)O)C4)c4ccccc34)no2)cc1", "note": "[Compound A15, 1-((4-(5-(4-(tert-butoxy)phenyl)-1,2,4-oxadiazol-3-yl)naphthalen-1-yl)methyl) azetidine-3-carboxylic acid hydrochloric acid]", "values": [
      {"measurement": "EC50", "setting": "[1]; [6]", "value": "> 10", "unit": "µM"},
      {"measurement": "EC50", "setting": "[2]; [8]", "value": 1230, "unit": "nM"}
    ]}
  ]
}
